Experimental findings from PMC6030096, “Synergy of Physico-chemical and Biological Experiments for Developing a Cyclooxygenase-2 Inhibitor” (Scientific Reports, 2018) are described below.

In assay [1] the target is T1, COX-1 (Ovis aries, UniProt P05979).
T1 construct: purchased Cayman Chemical Co. 560131
T1 sequence (P05979 25-600): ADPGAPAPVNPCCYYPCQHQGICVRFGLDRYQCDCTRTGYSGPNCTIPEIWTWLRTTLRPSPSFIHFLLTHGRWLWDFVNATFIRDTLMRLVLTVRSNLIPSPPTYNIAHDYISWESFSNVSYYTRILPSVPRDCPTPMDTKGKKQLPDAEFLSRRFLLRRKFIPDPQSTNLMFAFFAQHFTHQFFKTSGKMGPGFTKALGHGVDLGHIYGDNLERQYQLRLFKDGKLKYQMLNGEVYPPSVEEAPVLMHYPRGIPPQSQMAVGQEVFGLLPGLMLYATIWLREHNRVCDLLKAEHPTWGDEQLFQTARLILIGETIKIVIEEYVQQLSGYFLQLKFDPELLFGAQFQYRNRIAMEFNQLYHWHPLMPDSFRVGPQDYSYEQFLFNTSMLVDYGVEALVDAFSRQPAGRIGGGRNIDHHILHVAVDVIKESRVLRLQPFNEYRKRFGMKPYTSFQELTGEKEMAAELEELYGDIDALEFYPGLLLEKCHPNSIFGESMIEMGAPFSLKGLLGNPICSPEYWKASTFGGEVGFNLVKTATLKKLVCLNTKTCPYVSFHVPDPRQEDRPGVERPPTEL
In words: COX-1 enzyme immunoassay (Cayman inhibitor screening kit). Type of assay: biochemical. The procedure: (§1) Principally, the catalytic activity of COX-1/2 is slowed down in the presence of its inhibitor and quantitatively, it is inversely proportional to the amount of prostaglandin produced in the presence of inhibitor.
(§2) The enzyme inhibition screening assay kits for COX-1/2 and 5-LOX with item no. […] The 100% initial activity tubes for the two enzymes contained 10 µL heme and 10 µL of the enzyme in 160 µL reaction buffer. Then 10 µL inhibitor (compound of above mentioned concentrations) was added to the inhibitor tubes for the two enzymes and 10 µL of vehicle (DMSO) was added to 100% initial activity and background tubes. All the tubes were incubated for 10 min at 37 °C and the reaction was started by adding 10 µL arachidonic acid to all the reaction tubes. After incubation of the reaction vials for 2 min at 37 °C, the enzyme catalysis was stopped by adding 30 µL saturated stannous chloride solution to each test tube and solutions were kept at 0–4 °C. For EIA (enzyme immunoassay) procedure: the EIA buffers and assay specific reagents were prepared as written in the manual. In the COX dilutions, two test tubes labelled as BC1 and BC2 were taken to prepare background samples. Each tube contained 990 µL of EIA buffer and 10 µL of background COX-1 for BC1 and 10 µL of background COX-2 for BC2. The samples for 100% initial activity were diluted in three vials labelled IA1, IA2 and IA3 for each enzyme. IA1 contained 990 µL EIA buffer and 10 µL enzyme, IA2 has 950 µL buffer and 50 µL solution of IA1 (1:2000 dilution of original sample) and IA3 carried 500 µL of buffer and 500 µL of IA2 solution (1:4000 dilution of original sample). Each solution was thoroughly mixed. Solutions of IA2 and IA3 were used for the assaying. […] C2 contained 950 µL buffer and 50 µL solution of C1 (1:2000 dilution of original sample) and vial C3 was charged with 500 µL buffer and 500 µL solution from C2 (1: 4000 dilution of original sample). Only C2 and C3 were run in the assay. After all the reaction dilutions, these were then subjected to 96 wells plate. The wells were divided as: 2 blank wells, 2 NSB wells (non-specific binding), 3 B0 wells (maximum binding), one TA well (total activity), 16 wells for standards (S1–S8 in repeat), 2 BC1 and 2 BC2 wells. Compounds (inhibitors) were put in all the other wells. The sequence for the addition of reagents onto the plate was as per the protocol of the assay kit. […] For developing the plate; it was emptied and washed with wash buffer 5 times followed by the addition of 200 µL Ellman’s reagent to each well. 5 µL tracer was added to the TA well. Then the plate was covered and left for 60 mins for development in dark. After the respective time period the cover was removed and the plate was read at 420 nm. %B/Bo (i.e. % sample or maximum bound) value for standards S1-S8 and each sample was determined from the absorbance values obtained according to the calculation given in the protocol. The amount of prostaglandins formed during the enzymatic reaction was calculated from the values of %B/Bo for all the compounds at all concentrations with the help of the standard curve (plotted between %B/Bo of standards and raw data given in the protocol). Then the prostaglandin formed at each concentration of all the compounds and percentage inhibition values were calculated. The graph between percent inhibition of the enzyme and corresponding concentration of the compound provided IC50 values for the compounds.

For assay [2], the target named is T2, COX-1 (Homo sapiens, UniProt P23219).
T2 construct: endogenous in cells; host or cells: human whole blood (heparinized, venipuncture)
T2 sequence (P23219 24-599): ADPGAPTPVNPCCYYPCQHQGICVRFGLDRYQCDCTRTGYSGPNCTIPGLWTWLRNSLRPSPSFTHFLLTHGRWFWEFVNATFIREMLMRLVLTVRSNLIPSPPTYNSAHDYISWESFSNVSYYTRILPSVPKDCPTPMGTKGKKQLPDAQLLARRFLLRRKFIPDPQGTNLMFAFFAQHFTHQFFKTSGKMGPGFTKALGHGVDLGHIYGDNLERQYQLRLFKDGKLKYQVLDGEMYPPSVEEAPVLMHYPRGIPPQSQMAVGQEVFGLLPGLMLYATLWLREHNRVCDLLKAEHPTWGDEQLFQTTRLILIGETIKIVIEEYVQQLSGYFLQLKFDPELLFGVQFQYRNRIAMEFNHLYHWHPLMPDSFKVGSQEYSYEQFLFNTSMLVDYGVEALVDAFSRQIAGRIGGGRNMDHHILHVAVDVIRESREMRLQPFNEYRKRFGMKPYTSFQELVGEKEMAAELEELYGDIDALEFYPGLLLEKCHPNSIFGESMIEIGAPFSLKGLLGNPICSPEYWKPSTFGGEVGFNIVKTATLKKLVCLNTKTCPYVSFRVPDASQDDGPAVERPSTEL
In words: Human whole blood assay for COX-1 (A23187 stimulated TxB2). The following applies: final conc 1 µM, A23187 50 µM. The class given is cell-based. The text has this:
The use of human blood for the whole blood assay was duly approved by the institutional ethical committee of the University for human subjects. Production of prostaglandin PGE2 during lipopolysaccharide (LPS) stimulated whole blood was used to quantify COX-2 inhibitory activity whereas calcium ionophore (A23187) stimulated thromboxane (TxB2) production was used to measure COX-1 inhibitory activity of the compounds.
Approval for the use of human blood was taken from the institutional ethical committee of Guru Nanak Dev University Amritsar and informed consent was obtained from the subject[32],[33]. All experiments were performed in accordance with the relevant guidelines and regulations. By venipuncture, the blood sample was collected in heparinized tubes. […] Each sample in duplicate was assayed for TxB2 (the breakdown product of TxA2) using TXB2 Express ELISA kit (Cayman Chemicals, Ann Arbor, MI) by the reported protocol.

The target in a further assay is T3, COX-2 (Homo sapiens, UniProt P35354).
T3 sequence (P35354 18-604): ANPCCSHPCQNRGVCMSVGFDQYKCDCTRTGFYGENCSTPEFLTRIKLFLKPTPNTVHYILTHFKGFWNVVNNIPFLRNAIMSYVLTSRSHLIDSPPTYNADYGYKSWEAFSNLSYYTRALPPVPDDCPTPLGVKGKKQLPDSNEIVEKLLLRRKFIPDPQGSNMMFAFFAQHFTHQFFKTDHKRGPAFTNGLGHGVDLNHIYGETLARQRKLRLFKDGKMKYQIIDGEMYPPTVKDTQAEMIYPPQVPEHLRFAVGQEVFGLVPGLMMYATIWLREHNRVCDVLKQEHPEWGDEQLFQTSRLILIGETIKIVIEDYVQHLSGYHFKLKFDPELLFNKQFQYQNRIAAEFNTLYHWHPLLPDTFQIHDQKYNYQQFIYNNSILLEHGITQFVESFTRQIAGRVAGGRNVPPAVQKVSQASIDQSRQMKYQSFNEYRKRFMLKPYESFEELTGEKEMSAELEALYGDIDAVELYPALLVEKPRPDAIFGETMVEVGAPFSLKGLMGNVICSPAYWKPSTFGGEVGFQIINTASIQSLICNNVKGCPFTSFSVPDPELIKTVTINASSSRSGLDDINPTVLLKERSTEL
The assay is described as follows: COX-2 enzyme immunoassay (Cayman inhibitor screening kit). Type of assay: biochemical. Set-up: purchased Cayman Chemical Co. 560131. Conditions: for IC50: enzyme immunoassay, average of three experiments; for Selectivity index: SI = IC50 (COX-1)/ IC50 (COX-2). As to the method: as §1, §2

Setting [3] is: enzyme immunoassay, average of three experiments, read-out: IC50 COX-1.

Like-named read-outs stand apart in the source and are kept apart here.

In general, IC50 refers to the concentration at which inhibition is half-maximal. For the compound `O=C1Nc2ccccc2C1=Cc1cn(C[C@H](O)Cn2c3ccccc3c(=O)c3ccccc32)c2ccccc12` [(S)-3c], the half-maximal inhibitory concentration (IC50) at COX-1 [1] (setting [3]) is 60000 ± 3000 nM; at COX-2, 800 ± 75 nM. Besides, the “Production of TXB2, +Ca^2+ Ionophore” value on COX-1 [2] is 1.80 ± 0.5 ng/mL.
With `O=C1NC(=O)C(=Cc2cn(CCCn3c4ccccc4c(=O)c4ccccc43)c3ccccc23)C(=O)N1` [Compound 4a], it took 30000 ± 1800 nM to reach half-maximal inhibition against COX-1 [1] (IC50). For the same compound, on COX-1 [2], the “Production of TXB2, +Ca^2+ Ionophore” value was found to be 1.84 ± 0.11 ng/mL. At COX-2, this compound returned a Selectivity index of 300 and an IC50 of 100 ± 60 nM.
Turning to `O=C1Nc2ccccc2C1=Cc1cn(CCCn2c3ccccc3c(=O)c3ccccc32)c2ccccc12` [Compound 4c], at COX-1 [1] (setting [3]), the IC50 is 4000 ± 320 nM. Also, the “Production of TXB2, +Ca^2+ Ionophore” value at COX-1 [2] is given as 1.70 ± 0.3 ng/mL. On COX-2, this compound came in with a Selectivity index of 13.33 and an IC50 of 300 ± 15 nM.
